Experiments:
Conditions in all cases: 72 h
Calu-3 [1] = assay: cell viability relative to DMSO; higher = less toxic
U2OS [2] = assay: as above
Vero E6 [3] = assay: as above
HepG2 [4] = assay: as above
Caco-2 [5] = assay: as above
Calu-3 [6] = assay: relative viability EC50 (midpoint between 100% and the lowest measured viability); higher = less toxic
U2OS [7] = assay: as above
Vero E6 [8] = assay: as above
HepG2 [9] = assay: as above
Caco-2 [10] = assay: as above
Calu-3 [11] = assay: drug sensitivity score (DSS) for viability; higher = more toxic; extreme values may be limits of the assay
U2OS [12] = assay: as above
Vero E6 [13] = assay: as above
HepG2 [14] = assay: as above
Caco-2 [15] = assay: as above

SMILES | cell viability (Calu-3 [1]; 1 nM) | cell viability (Calu-3 [1]; 10 nM) | cell viability (Calu-3 [1]; 100 nM) | cell viability (Calu-3 [1]; 1000 nM) | cell viability (Calu-3 [1]; 10000 nM) | cell viability (U2OS [2]; 1 nM) | cell viability (U2OS [2]; 10 nM) | cell viability (U2OS [2]; 100 nM) | cell viability (U2OS [2]; 1000 nM) | cell viability (U2OS [2]; 10000 nM) | cell viability (Vero E6 [3]; 1 nM) | cell viability (Vero E6 [3]; 10 nM) | cell viability (Vero E6 [3]; 100 nM) | cell viability (Vero E6 [3]; 1000 nM) | cell viability (Vero E6 [3]; 10000 nM) | cell viability (HepG2 [4]; 1 nM) | cell viability (HepG2 [4]; 10 nM) | cell viability (HepG2 [4]; 100 nM) | cell viability (HepG2 [4]; 1000 nM) | cell viability (HepG2 [4]; 10000 nM) | cell viability (Caco-2 [5]; 1 nM) | cell viability (Caco-2 [5]; 10 nM) | cell viability (Caco-2 [5]; 100 nM) | cell viability (Caco-2 [5]; 1000 nM) | cell viability (Caco-2 [5]; 10000 nM) | relative viability EC50 (Calu-3 [6]) | relative viability EC50 (U2OS [7]) | relative viability EC50 (Vero E6 [8]) | relative viability EC50 (HepG2 [9]) | relative viability EC50 (Caco-2 [10]) | drug sensitivity score (Calu-3 [11]) | drug sensitivity score (U2OS [12]) | drug sensitivity score (Vero E6 [13]) | drug sensitivity score (HepG2 [14]) | drug sensitivity score (Caco-2 [15])
COc1ccc(CCN(C)CCCC(C#N)(c2cc(OC)c(OC)c(OC)c2)C(C)C)cc1OC (stereo not given) [gallopamil] | 94.1% | 104% | 97% | 92.2% | 104% | 94% | 99.7% | 96.4% | 97.3% | 99.3% | 101% | 97.3% | 96.9% | 102% | 106% | 96.8% | 103% | 98.3% | 101% | 106% | 91.3% | 91.5% | 92.1% | 91.6% | 96% | > 10 µM | > 10 µM | > 10 µM | > 10 µM | > 10 µM | 0 | 0 | 0 | 0 | 0
NC/C(=C/F)CCc1ccc(F)cc1 [mofegiline] | 102% | 97.7% | 102% | 104% | 88.4% | 98.6% | 99.3% | 95.7% | 96.2% | 96.3% | 92.5% | 102% | 90.5% | 91.7% | 95% | 98% | 91.5% | 87.9% | 90% | 97.4% | 89.5% | 96.7% | 85.8% | 90.4% | 92.4% | > 10 µM | > 10 µM | > 10 µM | > 10 µM | > 10 µM | 0 | 0 | 0 | 0 | 0
C[n+]1cc2c3c(ccc2c2ccc4cc5c(cc4c21)OCO5)OCO3 [sanguinarium-chloride] | 101% | 96.4% | 83.9% | 91.1% | 0.9% | 96.6% | 98.5% | 97% | 92.1% | 0.2% | 109% | 99.8% | 105% | 75.9% | 0.1% | 93% | 103% | 96.7% | 64.3% | 0% | 85.8% | 103% | 73.1% | 82.4% | 2.2% | 2.42 µM | 2.52 µM | 1.58 µM | 1.29 µM | 1.82 µM | 6.9 | 6.8 | 9.2 | 10.3 | 8.3
CCN(CC)CCN[C@@H](C(=O)OCCC(C)C)c1ccccc1 [camylofine-chlorhydrate] | 96.3% | 107% | 102% | 97.5% | 99% | 90.7% | 99.7% | 94.8% | 101% | 108% | 94.9% | 93% | 95.7% | 91.1% | 103% | 106% | 105% | 98.6% | 97.3% | 108% | 84.4% | 82% | 85.5% | 100% | 85.6% | > 10 µM | > 10 µM | > 10 µM | > 10 µM | > 10 µM | 0 | 0 | 0 | 0 | 1
CCOC(=O)COc1ccc2c(=O)cc(-c3ccccc3)oc2c1 [efloxate] | 105% | 98.9% | 85.8% | 83.5% | 99.1% | 95.4% | 95.5% | 98.7% | 96.7% | 99.2% | 97% | 100% | 91.9% | 101% | 106% | 97.9% | 100% | 98.3% | 99.2% | 99.3% | 93% | 88.6% | 101% | 101% | 96.1% | > 10 µM | > 10 µM | > 10 µM | > 10 µM | > 10 µM | 3 | 0 | 0 | 0 | 0
Nc1nc(O)c2ncn(CCC(CO)CO)c2n1 [penciclovir] | 102% | 90.8% | 92% | 94.1% | 99.5% | 99.3% | 95.9% | 93.9% | 101% | 104% | 100% | 94.3% | 90% | 95.1% | 102% | 89.8% | 94.3% | 101% | 94.6% | 102% | 98.7% | 109% | 102% | 103% | 102% | > 10 µM | > 10 µM | > 10 µM | > 10 µM | > 10 µM | 0 | 0 | 0 | 0 | 0
COc1cn(-c2ccc(-n3cccn3)cc2F)nc(-c2ccnn2-c2ccccc2)c1=O [TAK-063] | 92.1% | 95.4% | 98.8% | 102% | 109% | 97.3% | 99.6% | 97.1% | 101% | 102% | 91.7% | 97.3% | 103% | 90% | 104% | 99.7% | 95.5% | 102% | 105% | 106% | 88.1% | 95.7% | 91.1% | 97.4% | 105% | > 10 µM | > 10 µM | > 10 µM | > 10 µM | > 10 µM | 0 | 0 | 0 | 0 | 0
